Laboratory results: US4302448A, “Secretin preparations with intensified and protracted action, process for their manufacture, their use as well as dihydroxybenzoyl-L-tyrosine” (Hoechst Aktiengesellschaft, priority 1979, dated 1981)

Test system: Pancreatic juice secretion of the rat
Assay: Pancreatic juice secretion of the rat after subcutaneous administration of secretin with depot bodies
Type: in vivo
Conditions: rat, subcutaneous, 5 CU/kg secretin + 10 mg depot body/animal; for Δ% vs. control (percentage by which the pancreatic secretion is above the basal secretion after 5 hours): control=100%, measure of depot effect; for Rel. Intensity of effect over 5 hours (total pancreatic juice secretion over 5 hours as compared with control): control (0.9% of NaCl)=1
Procedure: Secretin preparations for subcutaneous application which contained the depot bodies specified in the following Table were tested in animal experiments. In the experimental procedure chosen, 5 to 8 male rats weighing 300 to 500 g each are administered subcutaneously 5 CU/kg of secretin (CU means clinical unit) and 10 mg of the depot body to be tested each in aqueous solution or suspension.
The animals remain without food for 18 hours prior to the test, but they are given water ad libitum. Under urethane anaesthesia (5 ml/kg i.m. of 25% urethane) the abdomen is opened by median section after tracheotomy, and the pylorus is ligated. The ductus choledochus is tied off in its proximal part near the porta hepatis, and the bile is led into the duodenum via a polyethylene tube of a diameter of […]. A cannula or catheter is inserted into the distal part of the bile duct, into which the numerous pancreatic ducts open, immediately before it opens into the duodenum, and the volume of the secretion running off is measured in 60 minute intervals. Following a preliminary run of 60 minutes the preparations are administered.
L means the compound known from literature and characterized by the melting point, optionally UV, IR or NMR. A to C relate to the preparation according to Example 1, process A to C. These compounds were characterized by ultimate analysis. The third column indicates the percentage by which the pancreatic secretion is above the basal secretion after 5 hours (calculated on the control=100%). This value is a measure for the depot effect of the depot body tested. Column 4 indicates the intensification of the secretin effect, with the total pancreatic juice secretion having been given over 5 hours as compared with the control (0.9% of NaCl)=1.

## 2,8-Dihydroxy-3-naphthoyl-diethanolamine
  Δ% vs. control (percentage by which the pancreatic secretion is above the basal secretion after 5 hours): 77%
  Rel. Intensity of effect over 5 hours (total pancreatic juice secretion over 5 hours as compared with control): 9.1

## 3,5-Dihydroxyphenylcarbonyl-ethylphenyl-3,5-dimethyl phosphate
  Δ% vs. control (percentage by which the pancreatic secretion is above the basal secretion after 5 hours): 62%
  Rel. Intensity of effect over 5 hours (total pancreatic juice secretion over 5 hours as compared with control): 3.4

## O=C(c1ccc2ccccc2c1O)N(CCO)CCO [1-Hydroxy-2-naphthoic acid-diethanolamide]
  Δ% vs. control (percentage by which the pancreatic secretion is above the basal secretion after 5 hours): 79%
  Rel. Intensity of effect over 5 hours (total pancreatic juice secretion over 5 hours as compared with control): 8.1

## O=C(NCCO)c1ccc2ccccc2c1O [1-Hydroxy-2-naphthoic acid-ethanolamide]
  Δ% vs. control (percentage by which the pancreatic secretion is above the basal secretion after 5 hours): 74%
  Rel. Intensity of effect over 5 hours (total pancreatic juice secretion over 5 hours as compared with control): 8.0

## O=C(c1ccc(O)cc1O)c1ccc(O)cc1O [2,2'-4,4'-Tetrahydroxybenzophenone]
  Δ% vs. control (percentage by which the pancreatic secretion is above the basal secretion after 5 hours): 58%
  Rel. Intensity of effect over 5 hours (total pancreatic juice secretion over 5 hours as compared with control): 4.8

## O=C(c1ccccc1)c1ccc(O)c(O)c1O [2,3,4-Trihydroxy-benzophenone]
  Δ% vs. control (percentage by which the pancreatic secretion is above the basal secretion after 5 hours): 109%
  Rel. Intensity of effect over 5 hours (total pancreatic juice secretion over 5 hours as compared with control): 9.1

## CC(=O)c1ccc(O)cc1O [2,4-Dihydroxy-acetophenone]
  Δ% vs. control (percentage by which the pancreatic secretion is above the basal secretion after 5 hours): 70%
  Rel. Intensity of effect over 5 hours (total pancreatic juice secretion over 5 hours as compared with control): 6.1

## O=C(c1ccccc1)c1ccc(O)cc1O [2,4-Dihydroxy-benzophenone]
  Δ% vs. control (percentage by which the pancreatic secretion is above the basal secretion after 5 hours): 163%
  Rel. Intensity of effect over 5 hours (total pancreatic juice secretion over 5 hours as compared with control): 9.1

## O=C(NCc1ccccc1)c1ccc(O)cc1O [2,4-Dihydroxybenzoic acid-benzylamide]
  Δ% vs. control (percentage by which the pancreatic secretion is above the basal secretion after 5 hours): 64%
  Rel. Intensity of effect over 5 hours (total pancreatic juice secretion over 5 hours as compared with control): 6.8

## O=C(O)c1ccc(O)cc1O [2,4-Dihydroxybenzoic acid]
  Δ% vs. control (percentage by which the pancreatic secretion is above the basal secretion after 5 hours): 28%
  Rel. Intensity of effect over 5 hours (total pancreatic juice secretion over 5 hours as compared with control): 7.1

## O=C(N[C@@H](Cc1ccc(O)cc1)C(=O)N(CCO)CCO)c1ccc(O)cc1O [2,4-Dihydroxybenzoyl-L-tyrosine-diethanolamide]
  Δ% vs. control (percentage by which the pancreatic secretion is above the basal secretion after 5 hours): 47%
  Rel. Intensity of effect over 5 hours (total pancreatic juice secretion over 5 hours as compared with control): 8.7

## COC(=O)[C@H](Cc1ccc(O)cc1)NC(=O)c1ccc(O)cc1O [2,4-Dihydroxybenzoyl-L-tyrosine-methyl ester]
  Δ% vs. control (percentage by which the pancreatic secretion is above the basal secretion after 5 hours): 70%
  Rel. Intensity of effect over 5 hours (total pancreatic juice secretion over 5 hours as compared with control): 7.8

## CCCCNC(=O)[C@H](Cc1ccc(O)cc1)NC(=O)c1ccc(O)cc1O [2,4-Dihydroxybenzoyl-L-tyrosine-n-butylamide]
  Δ% vs. control (percentage by which the pancreatic secretion is above the basal secretion after 5 hours): 87%
  Rel. Intensity of effect over 5 hours (total pancreatic juice secretion over 5 hours as compared with control): 8.7

## O=C(N[C@@H](Cc1ccc(O)cc1)C(=O)O)c1ccc(O)cc1O [2,4-Dihydroxybenzoyl-L-tyrosine]
  Δ% vs. control (percentage by which the pancreatic secretion is above the basal secretion after 5 hours): 84%

## O=C(c1cc(Cl)ccc1O)N(CCO)CCO [2-Hydroxy-5-chloro-benzoic acid-diethanolamide]
  Δ% vs. control (percentage by which the pancreatic secretion is above the basal secretion after 5 hours): 77%
  Rel. Intensity of effect over 5 hours (total pancreatic juice secretion over 5 hours as compared with control): 7.3

## NC(=O)c1ccccc1O [2-Hydroxy-benzoic acid amide]
  Δ% vs. control (percentage by which the pancreatic secretion is above the basal secretion after 5 hours): 51%
  Rel. Intensity of effect over 5 hours (total pancreatic juice secretion over 5 hours as compared with control): 8.0

## O=C(O)c1ccccc1O [2-Hydroxy-benzoic acid]
  Δ% vs. control (percentage by which the pancreatic secretion is above the basal secretion after 5 hours): 6%
  Rel. Intensity of effect over 5 hours (total pancreatic juice secretion over 5 hours as compared with control): 4.5

## O=C(c1ccccc1)c1ccccc1O [2-Hydroxy-benzophenone]
  Δ% vs. control (percentage by which the pancreatic secretion is above the basal secretion after 5 hours): 74%
  Rel. Intensity of effect over 5 hours (total pancreatic juice secretion over 5 hours as compared with control): 7.2

## O=C(O)c1cc(O)nc2ccccc12 [2-Hydroxy-quinoline-4-carboxylic acid]
  Δ% vs. control (percentage by which the pancreatic secretion is above the basal secretion after 5 hours): 5%
  Rel. Intensity of effect over 5 hours (total pancreatic juice secretion over 5 hours as compared with control): 5.0

## O=C(CO)c1ccccc1 [2-Hydroxyacetophenone]
  Δ% vs. control (percentage by which the pancreatic secretion is above the basal secretion after 5 hours): 38%
  Rel. Intensity of effect over 5 hours (total pancreatic juice secretion over 5 hours as compared with control): 7.6

## O=C(O)c1cc(O)c(O)c(O)c1 [3,4,5-Trihydroxybenzoic acid]
  Δ% vs. control (percentage by which the pancreatic secretion is above the basal secretion after 5 hours): 28%
  Rel. Intensity of effect over 5 hours (total pancreatic juice secretion over 5 hours as compared with control): 5.0

## NC(=O)c1cc(O)cc(O)c1 [3,5-Dihydroxybenzoic acid amide]
  Δ% vs. control (percentage by which the pancreatic secretion is above the basal secretion after 5 hours): 34%
  Rel. Intensity of effect over 5 hours (total pancreatic juice secretion over 5 hours as compared with control): 6.2

## O=C(Nc1cccc(O)c1)c1cc(O)cc(O)c1 [3,5-Dihydroxybenzoic acid-3-hydroxy-anilide]
  Δ% vs. control (percentage by which the pancreatic secretion is above the basal secretion after 5 hours): 49%
  Rel. Intensity of effect over 5 hours (total pancreatic juice secretion over 5 hours as compared with control): 6.2

## O=C(O)c1cc(O)cc(O)c1 [3,5-Dihydroxybenzoic acid]
  Δ% vs. control (percentage by which the pancreatic secretion is above the basal secretion after 5 hours): 25%
  Rel. Intensity of effect over 5 hours (total pancreatic juice secretion over 5 hours as compared with control): 6.6

## O=C(NC(Cc1ccc(O)cc1)C(=O)N(CCO)CCO)c1cc(O)cc(O)c1 [3,5-Dihydroxybenzoyl-L-tyrosine-diethanolamide]
  Δ% vs. control (percentage by which the pancreatic secretion is above the basal secretion after 5 hours): 76%
  Rel. Intensity of effect over 5 hours (total pancreatic juice secretion over 5 hours as compared with control): 7.6

## NS(=O)(=O)c1cccc(NC(=O)c2ccccc2O)c1 [3-(2-Hydroxybenzoylamino)-benzene-sulfonamide]
  Δ% vs. control (percentage by which the pancreatic secretion is above the basal secretion after 5 hours): 81%
  Rel. Intensity of effect over 5 hours (total pancreatic juice secretion over 5 hours as compared with control): 8.1

## CC(=O)c1cccc(O)c1 [3-Hydroxy-acetophene]
  Δ% vs. control (percentage by which the pancreatic secretion is above the basal secretion after 5 hours): 54%
  Rel. Intensity of effect over 5 hours (total pancreatic juice secretion over 5 hours as compared with control): 9.0

## O=C(c1ccccc1)c1cccc(O)c1 [3-Hydroxy-benzophenone]
  Δ% vs. control (percentage by which the pancreatic secretion is above the basal secretion after 5 hours): 79%
  Rel. Intensity of effect over 5 hours (total pancreatic juice secretion over 5 hours as compared with control): 8.0

## O=C(O)c1cccc(O)c1 [3-Hydroxybenzoic acid]
  Δ% vs. control (percentage by which the pancreatic secretion is above the basal secretion after 5 hours): 47%
  Rel. Intensity of effect over 5 hours (total pancreatic juice secretion over 5 hours as compared with control): 4.0

## O=S(=O)(c1ccc(O)cc1)c1ccc(O)cc1 [4,4'-Dihydroxy-diphenyl sulfone]
  Δ% vs. control (percentage by which the pancreatic secretion is above the basal secretion after 5 hours): 74%
  Rel. Intensity of effect over 5 hours (total pancreatic juice secretion over 5 hours as compared with control): 6.2

## COC(=O)c1ccc(O)cc1 [4-Hydroxy-benzoic acid-methyl-ester]
  Δ% vs. control (percentage by which the pancreatic secretion is above the basal secretion after 5 hours): 15%
  Rel. Intensity of effect over 5 hours (total pancreatic juice secretion over 5 hours as compared with control): 5.3

## OCc1ccc(O)cc1 [4-Hydroxy-benzyl alcohol]
  Δ% vs. control (percentage by which the pancreatic secretion is above the basal secretion after 5 hours): 12%
  Rel. Intensity of effect over 5 hours (total pancreatic juice secretion over 5 hours as compared with control): 1.3
